Measured values as given in ChEMBL document CHEMBL5154935, “Design, Synthesis, and Biological Evaluation of Novel Evodiamine Derivatives as Potential Antihepatocellular Carcinoma Agents” (J Med Chem, 2022).
Calls of active or inactive are those of the source. The rule behind the calls is not given here.

Columns and labels:
SMMC-7721 = assay: Antiproliferative activity against human SMMC-7721 cells treated for 72 hrs by MTT assay; type: functional, cell-based; settings: SMMC-7721, 72 h
[1] = Acute toxicity in Kunming mouse assessed as frequency of eating at 100 mg/kg, ip measured for 14 consecutive days; type: organism-based; settings: in vivo, 336 h, time 14 day
Huh-7 [2] = assay: Antiproliferative activity against human Huh-7 cells assessed as inhibition of cell viability at less than 0.021 uM treated for 24 hrs by MTT assay; type: functional
Huh-7 [3] = assay: Induction of ROS generation in human Huh-7 cells incubated for 24 hrs by DCFH2-DA probe based flow cytometry; type: functional, cell-based; settings: dose 10-80 nM, DDE = dose-dependent effect
Huh-7 [4] = assay: Induction of cell cycle arrest in human Huh-7 cells assessed as accumulation at S phase at 40 nM treated for 24 hrs by PI staining based flow cytometry (reference value: 23.33 %); type: functional
Huh-7 [5] = assay: Antiproliferative activity against human Huh-7 cells assessed as inhibition of cell viability at less than 0.023 uM treated for 24 hrs by MTT assay; type: functional
Huh-7 [6] = assay: Induction of cell cycle arrest in human Huh-7 cells assessed as accumulation at G1 phase at 80 nM treated for 24 hrs by PI staining based flow cytometry (reference value: 60.77 %); type: functional
SK-HEP1 [7] = assay: Inhibition of cell invasion in human SK-HEP1 cells at 3 to 18 nM incubated for 24 hrs by matrigel based assay; type: functional; settings: dose 3-18 nM
Huh-7 [8] = assay: Induction of cell cycle arrest in human Huh-7 cells assessed as accumulation at S phase at 10 nM treated for 24 hrs by PI staining based flow cytometry (reference value: 23.33 %); type: functional
SK-HEP1 [9] = assay: Induction of cell cycle arrest in human SK-Hep1 cells assessed as accumulation at G1 phase at 10 nM treated for 24 hrs by PI staining based flow cytometry (reference value: 58.47 %); type: functional
[10] = Acute toxicity in Kunming mouse assessed as animal survival at 100 mg/kg, ip measured for 14 consecutive days; type: organism-based; settings: in vivo, 336 h, time 14 day
Huh-7 [11] = assay: Induction of apoptosis in human Huh-7 cells assessed as cell shrinkage incubated for 24 hrs by Giemsa staining based microscopy; type: functional; settings: dose 12-60 nM, DDE = dose-dependent effect
[12] = Acute toxicity in Kunming mouse assessed as frequency of defecation at 100 mg/kg, ip measured for 14 consecutive days; type: organism-based; settings: in vivo, 336 h, time 14 day
SK-HEP1 [13] = assay: Induction of apoptosis in human SK-Hep1 cells assessed as late apoptotic cells at 10 nM incubated for 24 hrs by annexin V-FITC/PI staining flow cytometry (reference value: 1.13 %); type: functional
Huh-7 [14] = assay: Induction of apoptosis in human Huh-7 cells assessed as early apoptotic cells at 80 nM incubated for 24 hrs by annexin V-FITC/PI staining flow cytometry (reference value: 0.33 %); type: functional
SK-HEP1 [15] = assay: Induction of mitochondrial membrane potential changes in human SK-Hep1 cells assessed as decrease in TMRE positive cells at 10 to 80 nM incubated for 24 hrs by TMRE staining based flow cytometry (reference value: 86.19 %); type: functional; design: scale not given: the % may be the effect or the level left; settings: dose 10-80 nM
[16] = Toxicity in BALB/c mouse xenografted with human Huh-7 cells assessed as aplastic anemia at 10 mg/kg, ip qd for 11 days and measured on day 11; type: organism-based; settings: in vivo, 264 h, time 11 day
[17] = Toxicity in BALB/c mouse xenografted with human Huh-7 cells assessed as reduction in WBC levels at 10 mg/kg, ip qd for 11 days and measured on day 11; type: organism-based; settings: in vivo, 264 h, time 11 day
[18] = Cmax in Sprague-Dawley rat at 80 mg/kg, ip measured upto 24 hrs by LC-MS analysis; type: ADME, organism-based; design: dose 80 mg/kg, time < 24 hrs, route ip; settings: in vivo
[19] = Toxicity in BALB/c mouse xenografted with human Huh-7 cells assessed as decrease in body weight at 10 mg/kg, ip qd for 11 days and measured every 2 days; type: organism-based; settings: in vivo, 264 h, time 11 day
[20] = Half life in Sprague-Dawley rat at 80 mg/kg, ip measured upto 24 hrs by LC-MS analysis; type: ADME, organism-based; settings: in vivo
[21] = Toxicity in BALB/c mouse xenografted with human Huh-7 cells assessed as reduction in RBC levels at 10 mg/kg, ip qd for 11 days and measured on day 11; type: organism-based, Erythrocyte; settings: in vivo, 264 h, time 11 day
[22] = AUC (0 to t) in Sprague-Dawley rat at 80 mg/kg, ip measured upto 24 hrs by LC-MS analysis; type: ADME, organism-based; design: time < 24 hrs, dose 80 mg/kg, route ip; settings: in vivo
[23] = Acute toxicity in Kunming mouse assessed as frequency of defecation at 400 mg/kg, ip measured for 14 consecutive days; type: organism-based; settings: in vivo, 336 h, time 14 day
[24] = Acute toxicity in Kunming mouse assessed as animal survival at 400 mg/kg, ip measured for 14 consecutive days; type: organism-based; settings: in vivo, 336 h, time 14 day
[25] = Toxicity in BALB/c mouse xenografted with human Huh-7 cells assessed as bone marrow suppression at 10 mg/kg, ip qd for 11 days and measured on day 11; type: organism-based; settings: in vivo, 264 h, time 11 day
[26] = Toxicity in BALB/c mouse xenografted with human Huh-7 cells assessed as reduction in platelet levels at 10 mg/kg, ip qd for 11 days and measured on day 11; type: organism-based; settings: in vivo, 264 h, time 11 day
Huh-7 [27] = assay: Antitumor activity in human Huh-7 cells xenografted in BALB/c mouse assessed as decrease in Ki-67 positive cells at 10 mg/kg, ip qd for 11 days and measured on day 12 by immunohistochemistry staining based assay; type: functional, organism-based; settings: time 12.0 day
[28] = Toxicity in BALB/c mouse xenografted with human Huh-7 cells assessed as histopathological change in heart at 10 mg/kg, ip qd for 11 days and measured after 12 days by hematoxylin and eosin staining based assay; type: organism-based; settings: in vivo, 288 h, time 12 day
[29] = Toxicity in BALB/c mouse xenografted with human Huh-7 cells assessed as histopathological change in kidney at 10 mg/kg, ip qd for 11 days and measured after 12 days by hematoxylin and eosin staining based assay; type: organism-based; settings: in vivo, 288 h, time 12 day
[30] = Acute toxicity in Kunming mouse assessed as frequency of eating at 400 mg/kg, ip measured for 14 consecutive days; type: organism-based; settings: in vivo, 336 h, time 14 day
SK-HEP1 [31] = assay: Induction of mitochondrial membrane potential changes in human SK-Hep1 cells assessed as decrease in TMRE positive cells at 10 to 80 nM incubated for 24 hrs by TMRE staining based flow cytometry (reference value: 87.92 %); type: functional; design: scale not given: the % may be the effect or the level left; settings: dose 10-80 nM
Huh-7 [32] = assay: Antitumor activity against human Huh-7 cells xenografted in BALB/c mouse assessed as reduction in neo-vascularisation at 10 mg/kg, ip qd for 11 days and measured after 12 days by hematoxylin and eosin staining based assay; type: functional, organism-based; settings: time 12.0 day
Huh-7 [33] = assay: Antitumor activity against human Huh-7 cells xenografted in BALB/c mouse assessed as tumor growth inhibition at 10 mg/kg, ip qd for 11 days and measured every 2 days relative to control; type: functional; settings: Huh-7, 264 h, time 11 day, read-out: TGI
[34] = Toxicity in BALB/c mouse xenografted with human Huh-7 cells assessed as histopathological change in spleen at 10 mg/kg, ip qd for 11 days and measured after 12 days by hematoxylin and eosin staining based assay; type: organism-based; settings: in vivo, 288 h, time 12 day
SK-HEP1 [35] = assay: Antiproliferative activity against human SK-Hep1 cells assessed as inhibition of cell viability at less than 0.227 uM treated for 24 hrs by MTT assay; type: functional

In the case of `O=C1c2cc(F)cc(F)c2N(c2cccc(F)c2)C2c3[nH]c4ccc(O)cc4c3CCN12` (stereo unspecified), the IC50 (SMMC-7721) is reported as 90 nM, the Activity [1] is reported as “Non-Toxic” and the Activity (Huh-7 [2]) is reported as greater than 80%. For the same compound, the Activity (Huh-7 [3]) was “Dde”, the Activity (Huh-7 [4]) was 21.24% and the Activity (Huh-7 [5]) was greater than 80%. For the same compound, the Activity (Huh-7 [6]) was 10.64%, the inhibition (SK-HEP1 [7]) was “Active” and the Activity (Huh-7 [8]) was 26.7%. For the same compound, the Activity (SK-HEP1 [9]) was 54.93%, the Activity [10] was “Non-Toxic” and the Activity (Huh-7 [11]) was “Dde”. The Activity [12] was “Non-Toxic”, the Activity (SK-HEP1 [13]) was 3.83% and the Activity (Huh-7 [14]) was 1.71%. The Activity (SK-HEP1 [15]) was 63.69%.

With `CC(=O)Oc1ccc2[nH]c3c(c2c1)CCN1C(=O)c2cc(F)cc(F)c2N(c2cccc(F)c2)C31` (stereo unspecified) the Activity [16] was “Non-Toxic”, the Activity [17] was “Non-Toxic” and the IC50 (SMMC-7721) was 80 nM. The Cmax [18] was 350 ng/mL, the Activity (Huh-7 [3]) was “Dde” and the Activity (Huh-7 [4]) was 21.48%. For the same compound, the Activity [19] was “Non-Toxic”, the half-life [20] was 7.24 h and the Activity [21] was “Non-Toxic”. For the same compound, the AUC(0-t) at 24 h [22] was 3070 ng·h/mL, the Activity [23] was “Non-Toxic” and the Activity [24] was “Non-Toxic”. For the same compound, the Activity [25] was “Non-Toxic”, the Activity [26] was “Non-Toxic” and the Activity (Huh-7 [6]) was 17.18%. For the same compound, the inhibition (SK-HEP1 [7]) was “Active”, the Activity (Huh-7 [27]) was “Active” and the Activity (Huh-7 [8]) was 34.56%. For the same compound, the Activity (SK-HEP1 [9]) was 62.52%, the Activity [28] was “Non-Toxic” and the Activity [29] was “Non-Toxic”. The Activity [30] was “Non-Toxic”, the Activity (Huh-7 [11]) was “Dde” and the Activity (SK-HEP1 [31]) was 65.21%. The Activity (Huh-7 [32]) was “Active”, the inhibition in vivo at 10 mg/kg (Huh-7 [33]) was 60.4% and the Activity [34] was “Non-Toxic”. The Activity (SK-HEP1 [35]) was greater than 80%, the Activity (SK-HEP1 [13]) was 7.45% and the Activity (Huh-7 [14]) was 1.1%.
